Test results: patent US10052320B2, “Substituted quinoxalines as FGFR kinase inhibitors” (ASTEX THERAPEUTICS LIMITED, priority 2011, dated 2018)

Columns and labels:
FGFR4 (h) = FGFR4 (h) (Homo sapiens, UniProt P22455); experiment: FGFR4 (enzymatic assay), TR-FRET; format: biochemical; settings: read-out: FGFR 4 pIC50 (converted)
Procedure: (§1) In a final reaction volume of 30 μL, FGFR4 (h) (60 ng/ml) was incubated with 50 mM HEPES pH 7.5, 6 mM MnCl2, 1 mM DTT, 0.1 mM Na3VO4, 0.01% Triton-X-100, 500 nM Btn-Flt3 and 5 μM ATP in the presence of compound (1% DMSO final). […] Time-Resolved Fluorescence Resonance Energy Transfer (TR-FRET) signal (ex340 nm. Em 620 nm, em 655 nm) was measured afterwards and results are expressed in RFU (Relative Fluorescence Units).

FGFR3 (h) = FGFR3 (h) (Homo sapiens, UniProt P22607); experiment: FGFR3 (enzymatic assay), TR-FRET; format: biochemical; settings: read-out: FGFR 3 pIC50 (converted)
Procedure: as §1, with “μL, FGFR3” for “μL, FGFR4”, “(h) (40” for “(h) (60”, “and 25” for “and 5”

[1] = test system: Ba/F3-KDR-transfected cells in the presence of 10 ng/ml murine IL3; experiment: Ba/F3-KDR (plus IL3) cellular proliferation counterscreen, Alamar Blue; format: cell-based; settings: plus 10 ng/ml murine IL3; for IC50: Mus musculus, read-out: BAF3-KDR (PLUS IL3) 384 well pIC50 (converted)
Procedure: (§2) Ba/F3-KDR (Minus IL3 or Plus IL3) (Cellular Proliferation Assay)
[…] Cells were put in an incubator at 37° C. and 5% CO2. After 24 hours, 10 μl of Alamar Blue solution (0.5 mM K3Fe(CN)6, 0.5 mM KaFe(CN)6, 0.15 mM Resazurin and 100 mM Phosphate Buffer) was added to the wells, incubated for 4 hours at 37° C. and 5% CO2 before RFU's (Relative Fluorescence Units) (ex. 540 nm., em. 590 nm.) were measured in a flurorescence plate reader.
(§3) As a counterscreen the same experiment was performed in the presence of 10 ng/ml murine IL3.
(§4) In a 96 well plate, 180 μl cell culture medium (phenol red free RPMI-1640, 10% FBS, 2 mM L-Glutamine and 50 μg/ml Gentamycin) containing 10000 cells per well of Ba/F3-KDR-transfected cells were pipette and 20 μl of compound dilution in DMSO was added. Cells were put in an incubator at 37° C. and 5% CO2. After 24 hours, 40 μl of Alamar Blue solution (0.5 mM K3Fe(CN)6, 0.5 mM KaFe(CN)6, 0.15 mM Resazurin and 100 mM Phosphate Buffer) was added to the wells, incubated for 4 hours at 37° C. and 5% CO2 RFU's (Relative Fluorescence Units) (ex. 540 nm., em. 590 nm.) were measured in a flurorescence plate reader.

[2] = target: Ba/F3-KDR-transfected cells (Homo sapiens, UniProt P35968); experiment: Ba/F3-KDR (minus IL3) cellular proliferation assay, Alamar Blue; format: cell-based; settings: minus IL3
Procedure: as §2
(§5) In a 384 well plate, 100 nl of compound dilution in DMSO was sprayed before adding 50 μl cell culture medium (phenol red free RPMI-1640, 10% FBS, 2 mM L-Glutamine and 50 μg/ml Gentamycin) containing 20000 cells per well of Ba/F3-KDR-transfected cells. Cells were put in an incubator at 37° C. and 5% CO2. After 24 hours, 10 μl of Alamar Blue solution (0.5 mM K3Fe(CN)6, 0.5 mM KaFe(CN)6, 0.15 mM Resazurin and 100 mM Phosphate Buffer) was added to the wells, incubated for 4 hours at 37° C. and 5% CO2 before RFU's (Relative Fluorescence Units) (ex. 540 nm., em. 590 nm.) were measured in a flurorescence plate reader.
as §3, §4

[3] = test system: Ba/F3-FGFR3-transfected cells in the presence of 10 ng/ml murine IL3; experiment: Ba/F3-FGFR3 (plus IL3) cellular proliferation counterscreen, Alamar Blue; format: cell-based; settings: plus 10 ng/ml murine IL3, 384 well; for IC50: Mus musculus, read-out: BAF3-FGFR 3 (PLUS IL3) 384 well pIC50 (converted)
Procedure: Ba/F3-FGFR3 (Minus IL3 or Plus IL3) (Cellular Proliferation Assay)
as §5, with “Ba/F3-FGFR3-transfected” for “Ba/F3-KDR-transfected”
as §3
as §4, with “well of Ba/F3-FGFR3-transfected cells were” for “well of Ba/F3-KDR-transfected cells were”, “5% CO2 before RFU's (Relative” for “5% CO2 RFU's (Relative”

Sequence of FGFR3 (h) (P22607 23-806): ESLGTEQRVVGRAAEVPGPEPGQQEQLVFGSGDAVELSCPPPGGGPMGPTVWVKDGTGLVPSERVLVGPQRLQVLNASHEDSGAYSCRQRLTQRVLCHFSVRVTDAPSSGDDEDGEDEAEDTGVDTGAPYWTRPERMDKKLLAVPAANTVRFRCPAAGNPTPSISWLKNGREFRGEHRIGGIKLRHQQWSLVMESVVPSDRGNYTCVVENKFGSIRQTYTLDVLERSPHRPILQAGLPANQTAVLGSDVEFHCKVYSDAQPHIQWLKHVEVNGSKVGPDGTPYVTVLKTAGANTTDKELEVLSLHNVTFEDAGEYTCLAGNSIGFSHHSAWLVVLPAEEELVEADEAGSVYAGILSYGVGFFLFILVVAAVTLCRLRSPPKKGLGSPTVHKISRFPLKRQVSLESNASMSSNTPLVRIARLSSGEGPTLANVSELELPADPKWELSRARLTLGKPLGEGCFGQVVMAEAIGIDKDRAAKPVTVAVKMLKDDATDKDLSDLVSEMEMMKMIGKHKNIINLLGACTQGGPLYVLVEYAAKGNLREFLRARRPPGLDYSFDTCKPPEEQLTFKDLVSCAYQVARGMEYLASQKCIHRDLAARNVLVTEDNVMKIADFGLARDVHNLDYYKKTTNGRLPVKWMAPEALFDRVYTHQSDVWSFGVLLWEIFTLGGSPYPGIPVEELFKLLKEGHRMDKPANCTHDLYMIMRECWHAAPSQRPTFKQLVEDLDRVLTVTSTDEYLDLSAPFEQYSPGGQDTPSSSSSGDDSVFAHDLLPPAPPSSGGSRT
Sequence of Ba/F3-KDR-transfected cells (P35968 whole entry, change not shown): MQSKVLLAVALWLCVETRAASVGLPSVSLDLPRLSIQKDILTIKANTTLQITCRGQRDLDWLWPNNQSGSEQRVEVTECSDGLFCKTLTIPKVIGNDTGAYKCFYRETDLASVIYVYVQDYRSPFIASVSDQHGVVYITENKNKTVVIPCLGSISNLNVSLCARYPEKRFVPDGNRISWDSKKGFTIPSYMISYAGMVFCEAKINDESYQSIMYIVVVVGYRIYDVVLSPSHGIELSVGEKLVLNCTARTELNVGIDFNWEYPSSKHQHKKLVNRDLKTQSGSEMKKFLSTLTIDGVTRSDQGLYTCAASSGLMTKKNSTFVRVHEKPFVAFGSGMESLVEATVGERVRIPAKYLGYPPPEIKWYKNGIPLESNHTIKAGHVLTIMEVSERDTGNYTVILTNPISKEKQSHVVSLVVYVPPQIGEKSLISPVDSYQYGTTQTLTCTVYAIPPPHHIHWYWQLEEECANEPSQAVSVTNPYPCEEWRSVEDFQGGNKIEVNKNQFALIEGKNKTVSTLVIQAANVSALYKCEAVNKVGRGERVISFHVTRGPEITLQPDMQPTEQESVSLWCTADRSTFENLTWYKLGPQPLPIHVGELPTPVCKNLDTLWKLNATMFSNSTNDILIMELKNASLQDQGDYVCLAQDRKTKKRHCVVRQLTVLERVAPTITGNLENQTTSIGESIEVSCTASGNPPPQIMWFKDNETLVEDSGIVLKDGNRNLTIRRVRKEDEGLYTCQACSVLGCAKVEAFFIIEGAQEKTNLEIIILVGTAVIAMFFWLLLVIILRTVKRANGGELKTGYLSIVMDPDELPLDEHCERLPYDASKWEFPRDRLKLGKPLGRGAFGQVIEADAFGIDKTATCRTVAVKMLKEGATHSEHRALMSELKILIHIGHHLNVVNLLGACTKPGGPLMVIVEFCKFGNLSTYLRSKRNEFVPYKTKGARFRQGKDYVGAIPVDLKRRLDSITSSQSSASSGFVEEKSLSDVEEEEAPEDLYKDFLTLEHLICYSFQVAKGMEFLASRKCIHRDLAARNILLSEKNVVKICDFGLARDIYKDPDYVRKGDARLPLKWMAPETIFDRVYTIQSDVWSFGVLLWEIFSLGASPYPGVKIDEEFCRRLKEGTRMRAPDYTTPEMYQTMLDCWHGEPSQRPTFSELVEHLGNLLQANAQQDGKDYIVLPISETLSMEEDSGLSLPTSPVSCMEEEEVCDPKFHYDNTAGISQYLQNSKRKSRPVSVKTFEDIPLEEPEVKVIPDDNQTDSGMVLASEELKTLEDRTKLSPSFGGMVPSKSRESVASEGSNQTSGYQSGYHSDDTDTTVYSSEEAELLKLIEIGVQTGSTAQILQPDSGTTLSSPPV
Sequence of FGFR4 (h) (P22455 22-802): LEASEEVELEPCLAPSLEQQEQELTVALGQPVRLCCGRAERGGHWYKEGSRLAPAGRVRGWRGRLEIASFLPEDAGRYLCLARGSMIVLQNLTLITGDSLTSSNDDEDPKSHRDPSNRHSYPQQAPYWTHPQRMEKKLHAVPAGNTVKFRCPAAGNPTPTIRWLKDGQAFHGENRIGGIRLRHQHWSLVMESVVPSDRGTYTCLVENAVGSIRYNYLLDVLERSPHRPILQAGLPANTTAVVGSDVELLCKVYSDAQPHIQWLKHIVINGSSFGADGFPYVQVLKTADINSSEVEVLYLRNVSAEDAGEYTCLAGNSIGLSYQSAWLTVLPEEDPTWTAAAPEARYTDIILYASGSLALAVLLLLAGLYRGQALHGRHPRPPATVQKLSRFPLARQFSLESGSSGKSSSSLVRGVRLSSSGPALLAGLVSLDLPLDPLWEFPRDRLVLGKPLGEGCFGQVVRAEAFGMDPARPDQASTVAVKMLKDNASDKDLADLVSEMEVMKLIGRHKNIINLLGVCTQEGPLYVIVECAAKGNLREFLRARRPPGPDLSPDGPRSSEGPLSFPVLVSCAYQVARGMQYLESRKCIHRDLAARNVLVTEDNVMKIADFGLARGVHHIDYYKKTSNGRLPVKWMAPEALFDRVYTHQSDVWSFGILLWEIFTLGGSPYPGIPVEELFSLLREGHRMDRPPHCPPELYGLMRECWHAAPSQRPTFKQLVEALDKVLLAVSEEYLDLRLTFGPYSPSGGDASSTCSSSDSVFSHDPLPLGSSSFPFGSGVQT

SMILES	IC50 (FGFR4 (h)) [nM]	IC50 (FGFR3 (h)) [nM]	BAF3-KDR (MIN IL3) 384 well pIC50 [2]	melting point [°C]	IC50 [1] [nM]	IC50 [3] [nM]	BAF3-KDR (PLUS IL3) 384 well pIC50 [1]	BAF3-FGFR 3 (PLUS IL3) 384 well pIC50 [3]
COCC(O)CN(c1cc(OC)cc(OC)c1)c1ccc2ncc(-c3cccnc3)nc2c1 (single isomer, unassigned) [Compound 46]	47.9	7.24	<5	154	> 10000	> 10000	–	–
COCC(O)CN(c1cc(OC)cc(OC)c1)c1ccc2ncc(-c3cccnc3)nc2c1 (single isomer, unassigned) [Compound 47]	115	22.4	<5	153	–	–	<5	<5
COc1cc(OC)cc(N(CCCNCC(F)(F)F)c2ccc3ncc(-c4cnc(OC)nc4)nc3c2)c1 [Compound 26]	479	100	<5	96	> 10000	> 10000	–	–
CO/N=C(\C)c1cnc2ccc(N(CCO)c3cc(OC)cc(OC)c3)cc2n1 [Compound 29]	234	38.9	<5	149	> 10000	> 10000	–	–
COc1cc(OC)cc(N(CCN2CCOCC2)c2ccc3ncc(-c4ccc(NC(=O)N5CCOCC5)nc4)nc3c2)c1 [Compound 35]	67.6	10	5.11	153	> 10000	> 10000	–	–
COc1cc(OC)cc(N(CCN2CCN(C(C)=O)CC2)c2ccc3ncc(-c4ccc(N)nc4)nc3c2)c1 [Compound 68]	282	33.9	<5	167	> 10000	> 10000	–	–
CNc1ccc(-c2cnc3ccc(N(CCCNCC(F)(F)F)c4cc(OC)cc(OC)c4)cc3n2)cn1 [Compound 129]	87.1	52.5	<5	165	> 10000	> 10000	–	–
COc1cc(OC)cc(N(CCO)c2ccc3ncc(-c4ccnc(C(=O)NCCCCCO)c4)nc3c2)c1 [Compound 139]	97.7	11.5	<5	–	> 10000	> 10000	–	–
COc1cc(OC)cc(N(CCCNCC(F)(F)F)c2ccc3ncc(C(=O)NCCN4CCOCC4)nc3c2)c1 [Compound 158]	> 1000	537	<5	–	> 10000	> 10000	–	–
COc1cc(OC)cc(N(CCNC(C)C)c2ccc3ncc(C(=O)NCCCN4CCN(C)CC4)nc3c2)c1 [Compound 159]	490	155	<5	–	> 10000	> 10000	–	–
COc1cc(OC)cc(N(CCNC(C)C)c2ccc3ncc(C(=O)NCCN4CCOCC4)nc3c2)c1 [Compound 160]	309	91.2	<5	–	> 10000	> 10000	–	–
COC(=O)C1CCCN1c1cnc2ccc(N(CCO)c3cc(OC)cc(OC)c3)cc2n1 (centres unmarked) [Compound 172]	417	87.1	<5	–	> 10000	> 10000	–	–
COc1cc(OC)cc(N(CCO)c2ccc3ncc(C4CCN(C(=O)OC(C)(C)C)CC4)nc3c2)c1 [Compound 185]	> 1000	110	<5	–	> 10000	> 10000	–	–
COc1cc(OC)cc(N(CCCO)c2ccc3ncc(-c4ccnc(C(=O)NCCOCCO)c4)nc3c2)c1 [Compound 186]	126	16.2	<5	–	> 10000	> 10000	–	–

Second part, led by results:

IC50 (FGFR4 (h)) [nM]	IC50 (FGFR3 (h)) [nM]	BAF3-KDR (MIN IL3) 384 well pIC50 [2]	melting point [°C]	SMILES	IC50 [1] [nM]	IC50 [3] [nM]	BAF3-KDR (PLUS IL3) 384 well pIC50 [1]	BAF3-FGFR 3 (PLUS IL3) 384 well pIC50 [3]
8.51	1.86	5.45	106	COc1cc(OC)cc(N(CCN)c2ccc3ncc(-c4ccn(C)c4)nc3c2)c1 [Compound 79]	> 10000	> 10000	–	–
64.6	7.41	<5	155	COc1cc(OC)cc(N(CCCO)c2ccc3ncc(-c4ccnc(F)c4)nc3c2)c1 [Compound 142]	> 10000	> 10000	–	–
331	44.7	<5	–	COc1cc(OC)cc(N(CCNC(C)C)c2ccc3ncc(NCC4CCNCC4)nc3c2)c1 [Compound 161]	> 10000	> 10000	–	–
28.8	6.17	<5	–	COc1cc(OC)cc(N(CCNC(C)C)c2ccc3ncc(-c4ccc(N5CCN(C)CC5)nc4)nc3c2)c1 [Compound 170]	> 10000	9770	–	–
> 1000	380	<5	–	COc1cc(OC)cc(N(CCNC(C)C)c2ccc3ncc(C(=O)N4CCN(C)CC4)nc3c2)c1 [Compound 179]	> 10000	> 10000	–	–
977	263	<5	–	COc1cc(OC)cc(N(CCNC(C)C)c2ccc3ncc(C(=O)N4CCCCC4)nc3c2)c1 [Compound 180]	> 10000	> 10000	–	–
> 1000	501	<5	–	COc1cc(OC)cc(N(CCNC(C)C)c2ccc3ncc(C(=O)N4CCOCC4)nc3c2)c1 [Compound 181]	> 10000	> 10000	–	–
7.24	6.17	5.14	–	COc1cc(OC)cc(N(CCNC(C)C)c2ccc3ncc(-c4ccn[nH]4)nc3c2)c1 [Compound 189]	> 10000	> 10000	–	–
